In patent US20050192273A1, “Therapy for psychoses combining an atypical antipsychotic and an mglu2/3 receptor agonist” (priority 2002, published 2005):
“Also recorded” adds a separate entry of the source.

Experiments:
human mGlu5 = target: T1, human mGlu5 (Homo sapiens, UniProt P41594); conditions: increase PI hydrolysis, cited from earlier work
T1 construct: expressed in transfected cells; host or cells: RGT cells (cells expressing the rat glutamate transporter)

human mGlu2 = target: T2, human mGlu2 (Homo sapiens, UniProt Q14416); conditions: decrease forskolin-stimulated cAMP, mean ± S.E.M., read-out: EC50 (nM) (Agonist Activity); cited from earlier work
T2 construct: expressed in transfected cells; host or cells: RGT cells (cells expressing the rat glutamate transporter)

[1] = test system: PCP-induced motor activation (ambulations); assay: PCP-induced motor activation (ambulations) in rats; type: in vivo, rat; conditions: PCP 5 mg/kg s.c., 60 min
Procedure: In the present experiments, studies were performed in accordance with Eli Lilly and Company animal care and use policies. Male Sprague-Dawley rats (250-300 g) were group-housed (maximum of seven rats per cage) under standard laboratory conditions with ad libitum access to food and water (12 h light/dark cycle), for at least 1 day before use.
Activity Assessment compounds were tested against PCP-induced motor activation (ambulations) in rats. Behavioral parameters were monitored in transparent, shoe-box cages that measured 45×25×20 cm, with a 1 cm depth of wood chips on the cage floor and a metal grill on top of the cage. Rectangular photocell monitors (Hamilton Kinder, Poway, Calif.) with a bank of […] (8×4 formation) surrounded each test cage. A lower rack of photocell beams was positioned 5 cm above the cage floor to enable detection of the location of the animals body, while an upper bank positioned 10 cm above the first tabulated rearing activity. Ambulations (locomotor activity) and rearing were recorded by the computer and stored for each test session as discussed in Male Sprague-Dawley rats were generally food-fasted 12-18 hours prior to the experiment. In some experiments, rats were allowed food and water ad libitum prior to the experiment. On the test day animals were placed in the test cage for a 30 min habituation period before to testing to allow for acclimation to the test cage environment. Following this habituation period, animals were administered challenges of phencyclidine (PCP) (5 mg/kg s.c.) or 0.9% NaCl vehicle (1 ml/kg) and behavioral assessment began immediately following their administration. Animals were monitored over a 60 min period in all instances. Test drugs or vehicle were administered at various pretreatment times prior to the PCP challenge.
Statistical analysis. Statistical Analysis were carried out using the GraphPad PRISM statistical/graphing package (GraphPad, SanDiego, Calif.). Data were analyzed using a one-way analysis of variance (ANOVA) and post-hoc comparisons were performed using Dunnett's multiple comparisons test.
The rats were tested 30 minutes post-injection of the test compound or vehicle. Behaviors were monitored over a 60 minute time period following S.C. injection of PCP or vehicle. Data (mean±S.E.) are presented as the total number of behaviors expressed during the timer period.

human mGlu1 = target: T3, human mGlu1 (Homo sapiens, UniProt Q13255); conditions: increase PI hydrolysis, cited from earlier work
T3 construct: expressed in transfected cells; host or cells: RGT cells (cells expressing the rat glutamate transporter)

human mGlu3 = target: T4, human mGlu3 (Homo sapiens, UniProt Q14832); conditions: decrease forskolin-stimulated cAMP, mean ± S.E.M., read-out: EC50 (nM) (Agonist Activity); cited from earlier work
T4 construct: expressed in transfected cells; host or cells: RGT cells (cells expressing the rat glutamate transporter)

human mGlu4 = target: T5, human mGlu4 (Homo sapiens, UniProt Q14833); conditions: decrease forskolin-stimulated cAMP, cited from earlier work
T5 construct: expressed in transfected cells; host or cells: RGT cells (cells expressing the rat glutamate transporter)

human mGlu7 = target: T6, human mGlu7 (Homo sapiens, UniProt Q14831); conditions: decrease forskolin-stimulated cAMP, cited from earlier work
T6 construct: expressed in transfected cells; host or cells: RGT cells (cells expressing the rat glutamate transporter)

human mGlu8 = target: T7, human mGlu8 (Homo sapiens, UniProt O00222); conditions: decrease forskolin-stimulated cAMP, mean ± S.E.M., read-out: EC50 (nM) (Agonist Activity); cited from earlier work
T7 construct: expressed in transfected cells; host or cells: RGT cells (cells expressing the rat glutamate transporter)

[2] = read-out: EC50 (nM) (Agonist Activity)
[3] = read-out: IC50 (nM) (Antagonist Activity)

T3 sequence (Q13255 19-1194): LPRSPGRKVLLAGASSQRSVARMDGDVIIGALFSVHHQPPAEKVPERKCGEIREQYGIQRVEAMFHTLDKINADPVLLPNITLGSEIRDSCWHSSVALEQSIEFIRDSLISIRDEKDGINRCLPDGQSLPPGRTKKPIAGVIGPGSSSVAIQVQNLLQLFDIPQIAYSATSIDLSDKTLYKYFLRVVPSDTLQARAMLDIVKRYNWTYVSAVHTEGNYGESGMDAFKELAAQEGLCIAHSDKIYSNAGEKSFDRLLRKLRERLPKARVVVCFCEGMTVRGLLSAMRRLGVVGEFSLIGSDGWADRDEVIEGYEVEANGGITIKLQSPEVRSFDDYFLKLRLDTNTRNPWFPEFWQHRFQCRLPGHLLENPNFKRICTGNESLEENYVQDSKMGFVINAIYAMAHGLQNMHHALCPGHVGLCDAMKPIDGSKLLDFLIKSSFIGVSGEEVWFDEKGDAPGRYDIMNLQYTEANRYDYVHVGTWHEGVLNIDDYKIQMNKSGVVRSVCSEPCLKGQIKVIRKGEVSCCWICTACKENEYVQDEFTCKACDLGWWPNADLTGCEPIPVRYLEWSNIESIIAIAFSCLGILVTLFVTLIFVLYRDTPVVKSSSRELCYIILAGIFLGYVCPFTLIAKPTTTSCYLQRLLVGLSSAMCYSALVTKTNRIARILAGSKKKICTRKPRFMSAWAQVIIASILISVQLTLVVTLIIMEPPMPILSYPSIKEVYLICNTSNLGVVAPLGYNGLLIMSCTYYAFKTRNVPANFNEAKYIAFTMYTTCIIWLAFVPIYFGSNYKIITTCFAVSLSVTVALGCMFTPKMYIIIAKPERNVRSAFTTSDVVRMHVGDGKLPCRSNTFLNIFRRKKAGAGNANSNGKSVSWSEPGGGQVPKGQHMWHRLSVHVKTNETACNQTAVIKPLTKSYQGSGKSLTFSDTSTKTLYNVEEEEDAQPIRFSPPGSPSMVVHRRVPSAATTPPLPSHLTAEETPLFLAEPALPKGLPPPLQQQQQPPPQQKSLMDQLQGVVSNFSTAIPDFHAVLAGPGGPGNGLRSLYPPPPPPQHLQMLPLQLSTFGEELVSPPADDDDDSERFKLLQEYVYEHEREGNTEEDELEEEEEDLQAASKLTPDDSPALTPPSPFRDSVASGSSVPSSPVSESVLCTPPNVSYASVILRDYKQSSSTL
T5 sequence (Q14833 33-912): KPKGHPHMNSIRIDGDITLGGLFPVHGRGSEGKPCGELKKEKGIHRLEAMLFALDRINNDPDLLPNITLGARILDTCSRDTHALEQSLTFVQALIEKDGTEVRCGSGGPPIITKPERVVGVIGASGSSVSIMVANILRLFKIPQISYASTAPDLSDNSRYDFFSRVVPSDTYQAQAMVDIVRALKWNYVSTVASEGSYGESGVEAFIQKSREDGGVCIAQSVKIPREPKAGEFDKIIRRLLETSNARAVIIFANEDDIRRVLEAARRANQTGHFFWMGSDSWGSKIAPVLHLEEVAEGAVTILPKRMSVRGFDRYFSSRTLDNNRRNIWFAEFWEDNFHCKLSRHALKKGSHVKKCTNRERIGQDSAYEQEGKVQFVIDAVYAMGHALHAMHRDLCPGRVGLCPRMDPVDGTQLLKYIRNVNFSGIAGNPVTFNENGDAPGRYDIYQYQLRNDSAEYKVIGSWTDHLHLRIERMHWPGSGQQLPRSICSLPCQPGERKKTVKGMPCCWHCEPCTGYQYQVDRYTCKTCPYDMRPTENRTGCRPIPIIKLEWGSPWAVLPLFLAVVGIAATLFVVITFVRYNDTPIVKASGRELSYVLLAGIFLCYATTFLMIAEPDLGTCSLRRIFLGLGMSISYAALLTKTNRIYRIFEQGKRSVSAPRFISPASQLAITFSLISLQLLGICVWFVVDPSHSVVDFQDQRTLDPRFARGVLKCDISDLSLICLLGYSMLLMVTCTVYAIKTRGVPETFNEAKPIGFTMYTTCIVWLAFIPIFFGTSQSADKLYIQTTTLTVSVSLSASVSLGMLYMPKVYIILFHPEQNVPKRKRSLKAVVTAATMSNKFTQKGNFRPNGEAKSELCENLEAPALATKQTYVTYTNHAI
T1 sequence (P41594 21-1180 isoform P41594-2 limits assumed): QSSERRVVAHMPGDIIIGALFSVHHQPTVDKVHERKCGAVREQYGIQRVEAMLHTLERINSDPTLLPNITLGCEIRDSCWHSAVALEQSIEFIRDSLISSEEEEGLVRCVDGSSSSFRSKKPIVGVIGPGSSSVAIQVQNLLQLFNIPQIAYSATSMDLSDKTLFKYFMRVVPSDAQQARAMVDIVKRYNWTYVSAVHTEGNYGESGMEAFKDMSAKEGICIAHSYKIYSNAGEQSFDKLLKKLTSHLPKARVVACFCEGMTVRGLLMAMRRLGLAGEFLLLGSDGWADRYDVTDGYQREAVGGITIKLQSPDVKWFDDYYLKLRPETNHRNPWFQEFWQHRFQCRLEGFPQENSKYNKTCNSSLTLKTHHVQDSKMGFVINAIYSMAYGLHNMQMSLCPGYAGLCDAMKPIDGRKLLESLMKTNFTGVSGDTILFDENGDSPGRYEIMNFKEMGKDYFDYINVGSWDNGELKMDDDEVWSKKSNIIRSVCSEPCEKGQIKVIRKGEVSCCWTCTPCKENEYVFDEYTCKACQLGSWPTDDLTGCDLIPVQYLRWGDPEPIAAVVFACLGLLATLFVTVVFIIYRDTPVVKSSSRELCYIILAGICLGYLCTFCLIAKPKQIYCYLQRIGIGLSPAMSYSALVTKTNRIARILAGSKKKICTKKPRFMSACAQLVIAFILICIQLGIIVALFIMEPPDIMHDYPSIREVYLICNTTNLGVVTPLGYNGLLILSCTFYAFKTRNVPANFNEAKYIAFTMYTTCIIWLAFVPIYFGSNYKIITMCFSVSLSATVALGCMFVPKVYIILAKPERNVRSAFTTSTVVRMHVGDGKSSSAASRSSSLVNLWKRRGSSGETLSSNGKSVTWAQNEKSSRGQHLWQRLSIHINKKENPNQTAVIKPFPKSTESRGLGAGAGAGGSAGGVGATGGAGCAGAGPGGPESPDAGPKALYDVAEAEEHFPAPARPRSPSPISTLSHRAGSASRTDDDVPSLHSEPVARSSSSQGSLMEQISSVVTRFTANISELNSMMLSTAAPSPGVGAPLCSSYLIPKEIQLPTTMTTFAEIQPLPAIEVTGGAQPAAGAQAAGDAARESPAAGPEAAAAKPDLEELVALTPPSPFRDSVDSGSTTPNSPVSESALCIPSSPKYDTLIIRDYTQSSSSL
T6 sequence (Q14831 35-915): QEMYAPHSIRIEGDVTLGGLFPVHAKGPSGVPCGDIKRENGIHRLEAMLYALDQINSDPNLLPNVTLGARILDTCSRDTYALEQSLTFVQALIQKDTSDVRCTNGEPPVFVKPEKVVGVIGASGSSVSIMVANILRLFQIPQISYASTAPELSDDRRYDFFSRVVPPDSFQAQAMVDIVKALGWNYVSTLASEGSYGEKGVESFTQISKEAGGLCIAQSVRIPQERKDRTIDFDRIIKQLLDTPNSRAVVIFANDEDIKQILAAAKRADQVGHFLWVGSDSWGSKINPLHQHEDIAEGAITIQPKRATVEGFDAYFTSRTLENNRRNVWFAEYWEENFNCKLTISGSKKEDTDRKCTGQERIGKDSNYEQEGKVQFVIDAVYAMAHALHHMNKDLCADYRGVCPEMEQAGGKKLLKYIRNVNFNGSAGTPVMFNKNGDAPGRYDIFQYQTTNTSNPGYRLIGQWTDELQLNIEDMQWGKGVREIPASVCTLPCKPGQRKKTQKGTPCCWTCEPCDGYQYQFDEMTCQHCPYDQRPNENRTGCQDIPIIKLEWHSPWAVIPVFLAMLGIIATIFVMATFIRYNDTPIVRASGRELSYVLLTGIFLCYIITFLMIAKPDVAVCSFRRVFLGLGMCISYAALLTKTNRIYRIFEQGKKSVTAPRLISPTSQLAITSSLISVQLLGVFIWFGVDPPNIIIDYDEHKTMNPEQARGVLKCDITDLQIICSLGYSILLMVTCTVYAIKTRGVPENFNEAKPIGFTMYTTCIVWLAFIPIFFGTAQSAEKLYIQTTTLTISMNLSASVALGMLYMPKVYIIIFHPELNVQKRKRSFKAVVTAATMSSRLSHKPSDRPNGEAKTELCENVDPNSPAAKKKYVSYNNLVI
T2 sequence (Q14416 19-872): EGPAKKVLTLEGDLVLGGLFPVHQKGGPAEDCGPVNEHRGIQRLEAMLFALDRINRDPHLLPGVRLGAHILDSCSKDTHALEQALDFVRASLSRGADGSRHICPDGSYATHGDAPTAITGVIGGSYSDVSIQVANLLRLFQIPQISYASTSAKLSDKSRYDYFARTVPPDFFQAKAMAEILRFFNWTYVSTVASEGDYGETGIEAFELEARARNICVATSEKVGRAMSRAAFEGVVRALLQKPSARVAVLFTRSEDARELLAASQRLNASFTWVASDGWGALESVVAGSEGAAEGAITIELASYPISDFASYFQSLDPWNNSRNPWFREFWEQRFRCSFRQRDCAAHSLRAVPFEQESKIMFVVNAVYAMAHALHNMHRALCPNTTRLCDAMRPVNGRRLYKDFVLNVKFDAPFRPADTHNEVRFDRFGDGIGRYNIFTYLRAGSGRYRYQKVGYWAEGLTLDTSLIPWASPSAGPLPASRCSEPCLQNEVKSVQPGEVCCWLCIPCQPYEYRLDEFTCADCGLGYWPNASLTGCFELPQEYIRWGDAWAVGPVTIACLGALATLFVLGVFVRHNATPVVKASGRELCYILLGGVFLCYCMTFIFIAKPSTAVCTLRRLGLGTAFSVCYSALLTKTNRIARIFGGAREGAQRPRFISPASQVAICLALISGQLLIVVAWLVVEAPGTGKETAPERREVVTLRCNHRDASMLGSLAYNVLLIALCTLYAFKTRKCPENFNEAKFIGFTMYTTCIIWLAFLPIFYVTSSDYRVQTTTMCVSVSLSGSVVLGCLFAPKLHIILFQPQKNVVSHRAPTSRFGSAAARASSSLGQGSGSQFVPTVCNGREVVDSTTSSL

NC1(C(=O)O)CCC2C(C(=O)O)C21 (single isomer, unassigned; (+)) [LY354740, (+)-2-aminobicyclo[3.1.0]hexane-2,6-dicarboxylic acid]
EC50 (human mGlu5; [2]): > 100000 nM | IC50 (human mGlu5; [3]): > 100000 nM | EC50 (human mGlu2): 5.1 ± 0.3 nM | effect on PCP-induced ambulations ([1]; single agent 10 mg/kg): statistically insignificant effect | EC50 (human mGlu1; [2]): > 100000 nM | IC50 (human mGlu1; [3]): > 100000 nM | EC50 (human mGlu3): 24.3 ± 0.5 nM | EC50 (human mGlu4; [2]): > 100000 nM | IC50 (human mGlu4; [3]): > 100000 nM | EC50 (human mGlu7; [2]): > 100000 nM | IC50 (human mGlu7; [3]): > 100000 nM | EC50 (human mGlu8): 36000 nM

N[C@]1(C(=O)O)C[C@H](F)[C@@H]2[C@@H](C(=O)O)[C@@H]21 [LY459477, (1S,2R,4S,5S,6S)-2-amino-4-fluorobicyclo[3.1.0]hexane-2,6-dicarboxylic acid]
effect on PCP-induced ambulations ([1]; single agent 1 mg/kg): relatively small impact; also recorded: statistically insignificant effect

N[C@@]1(C(=O)O)CO[C@H]2[C@H](C(=O)O)[C@H]21 [LY379268, 1R,4R,5S,6R-4-amino-(2-oxabicyclo[3.1.0]hexane)-4,6-dicarboxylic acid]
effect on PCP-induced ambulations ([1]; single agent 1 mg/kg): smaller and statistically insignificant effect

Cc1cc2c(s1)Nc1ccccc1N=C2N1CCN(C)CC1 [Olanzapine, 2-methyl-4-(4-methyl-1-piperazinyl)-10H-thieno[2,3-b][1,5]benzodiazepine, reference compound]
effect on PCP-induced ambulations ([1]; single agent 1 mg/kg): significant impact; also recorded: minimal impact
